These results are taken from patent publication US8420630B2 (Boehringer Ingelheim Pharma GmbH & Co. KG, priority 2001, dated 2013).

Where only a bound is given, the exact number is not on record here.

In the experiment the target is T1, CDK1/cyclinB1 (Homo sapiens, UniProt P06493).
T1 construct: made in house; host or cells: High Five insect cells (Trichoplusia ni), baculovirus coinfection
T1 sequence (P06493 whole entry): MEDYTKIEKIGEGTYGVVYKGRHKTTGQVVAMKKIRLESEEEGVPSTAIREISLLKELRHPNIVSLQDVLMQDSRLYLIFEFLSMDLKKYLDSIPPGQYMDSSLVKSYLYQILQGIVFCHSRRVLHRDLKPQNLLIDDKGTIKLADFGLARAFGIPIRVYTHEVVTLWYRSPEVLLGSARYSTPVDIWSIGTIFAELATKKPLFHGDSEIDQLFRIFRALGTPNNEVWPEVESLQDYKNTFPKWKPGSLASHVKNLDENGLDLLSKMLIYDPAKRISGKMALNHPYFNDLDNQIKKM
T1 sequence (P14635 whole entry partner): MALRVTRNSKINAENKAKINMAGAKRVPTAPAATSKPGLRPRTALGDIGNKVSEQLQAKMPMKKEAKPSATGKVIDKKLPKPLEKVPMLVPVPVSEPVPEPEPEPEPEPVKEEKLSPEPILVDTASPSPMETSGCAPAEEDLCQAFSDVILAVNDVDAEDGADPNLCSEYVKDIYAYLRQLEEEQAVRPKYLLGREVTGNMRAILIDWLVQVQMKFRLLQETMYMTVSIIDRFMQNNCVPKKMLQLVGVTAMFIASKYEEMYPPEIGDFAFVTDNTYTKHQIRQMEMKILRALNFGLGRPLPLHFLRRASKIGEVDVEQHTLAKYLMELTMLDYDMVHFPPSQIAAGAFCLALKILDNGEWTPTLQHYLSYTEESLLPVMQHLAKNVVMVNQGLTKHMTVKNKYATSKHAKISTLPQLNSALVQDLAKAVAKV
Description: Cyclin B1-CDK1 kinase inhibition test. As to conditions: CDK1 tests (Example 13); recombinant cyclin B1/CDK1, substrate histone H1; read-out: CDK1/cyclinB1 IC50 value. The format is biochemical. The method in brief: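 Baculovirus-expressed CDK1/cyclin B1 phosphorylated histone H1 with ATP mix containing 0.045 mM ATP plus ^33P-ATP for 30 min at 30 °C. Protein was precipitated with TCA and filter-bound radioactivity read by scintillation counting. Olomoucin at 30 and 300 μM final served as internal control.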
Regarding `O=C1CCCN1CCCNc1nc(Nc2cccc(CNCC(F)(F)F)c2)ncc1C(F)(F)F` [Example 11(034), 1-[3-(2-{3-[(2,2,2-Trifluoro-ethylamino)-methyl]-phenylamino}-5-trifluoromethyl-pyrimidin-4-ylamino)-propyl]-pyrrolidin-2-one], the IC50 is below 100 nM.

Consider `CC(C)CC(=O)NCCCNc1nc(Nc2ccc3cnn(C)c3c2)ncc1C(F)(F)F` [Example 7(015), 3-methyl-N-{3-[2-(1-methyl-1H-indazol-6-ylamino)-5-trifluoromethyl-pyrimidin-4-ylamino]-propyl}-butyramide], for which the IC50 is below 100 nM.

As for `CN(C)C(=O)NCCCNc1nc(Nc2ccc3cnn(C)c3c2)ncc1C(F)(F)F` [Example 7(035), 1,1-dimethyl-3-{3-[2-(1-methyl-1H-indazol-6-ylamino)-5-trifluoromethyl-pyrimidin-4-ylamino]-propyl}-urea], the IC50 is below 100 nM.

As to `O=C1CCCN1CCCNc1nc(Nc2ccc3[nH]cnc3c2)ncc1C(F)(F)F` [Example 2(037), 1-{3-[2-(1H-Benzimidazol-5-ylamino)-5-trifluoromethyl-pyrimidin-4-ylamino]-propyl}-pyrrolidin-2-one], the IC50 is below 100 nM.

Take `CC(=O)NCCNc1nc(Nc2ccc(NS(C)(=O)=O)cc2)ncc1C(F)(F)F` [Example 10(014), N-(2-[2-(4-methanesulphonylamido-phenylamino)-5-trifluoromethyl-pyrimidin-4-ylamino]-ethyl)-acetamide]: the IC50 is below 100 nM.

As to `NCCCNc1nc(Nc2cccc(Cl)c2)ncc1C(F)(F)F` [Example 1(012), 2-(3-chlorophenylamino)-4-(3-aminopropyl-amino)-5-trifluoromethyl-pyrimidine], the IC50 is below 100 nM.

In the case of `CN(C)S(=O)(=O)c1ccc(Nc2ncc(C(F)(F)F)c(N3CCc4nc[nH]c4C3)n2)cc1` [Example 1(694), N,N-dimethyl-4-[4-(3,4,6,7-tetrahydro-imidazo[4,5-c]pyridin-5-yl)-5-trifluoromethyl-pyrimidin-2-ylamino]-phenylsulphonamide], the IC50 is below 100 nM.

Turning to `CC(CC(=O)O)Nc1nc(Nc2ccc(Cl)c(Cl)c2)ncc1C(F)(F)F` (centres unmarked) [Example 1(388), 2-(3,4-dichlorophenylamino)-4-(1-carboxy-2-propylamino)-5-trifluoromethyl-pyrimidine], the IC50 is below 100 nM.

`O=[N+]([O-])c1cnc(Nc2ccc(Cl)cc2)nc1N1CCC[C@H]1CO` [Example 1(055), 2-(4-chloro-phenylamino)-4-((2S)-2-hydroxymethyl-pyrrolidin-1-yl)-5-nitro-pyrimidine]: the IC50 was below 100 nM.

As for `CC(=O)N(C)CCN(C)c1nc(Nc2ccc(S(=O)(=O)N(C)C)cc2)ncc1C(F)(F)F` [Example 1(690), N-(2-{[2-(4-dimethylsulphamoyl-phenylamino)-5-trifluoromethyl-pyrimidin-4-yl]-methyl-amino}-ethyl)-N-methyl-acetamide], the IC50 was below 100 nM.

Consider `CC(=O)NCC(C)(C)Nc1nc(Nc2ccc(S(=O)(=O)N3CCOCC3)cc2)ncc1C(F)(F)F` [Example 1(585), N-(2-Methyl-2-{2-[4-(morpholin-4-sulphonyl)-phenylamino]-5-trifluoromethyl-pyrimidin-4-ylamino}-propyl)-acetamide], for which the IC50 was below 100 nM.

For `NCCCOCCCNc1nc(Nc2ccc(Cl)c(Cl)c2)ncc1C(F)(F)F` [Example 1(073)], the IC50 was below 100 nM.

For `FC(F)(F)c1cnc(Nc2ccc(Cl)c(Cl)c2)nc1NCCCN1CC2C=CC1C2` (centres unmarked) [Example 1(009), 2-(3,4-dichlorophenylamino)-4-(3-(2-aza-bicyclo[2.2.1]hept-5-en-2-yl)-propylamino)-5-trifluoro-methyl-pyrimidine], the IC50 was below 100 nM.

Regarding `CN(C)[C@H]1CC[C@H](Nc2nc(Nc3ccc(C(=O)O)cc3)ncc2C(F)(F)F)CC1` [Example 1(054), 2-(4-carboxy-phenylamino)-4-(trans-4-dimethylamino-cyclohexylamino)-5-trifluoromethyl-pyrimidine], the IC50 was below 100 nM.
